Laboratory results: the supplement of paper PMC5908809

Key:
NK-YS (IL-2 2.5 ng/mL) [1] = test: drug sensitivity score (DSS) (DSS units); higher = more sensitive; extreme values may be limits of the assay; details: 72 h
SNK-6 (IL-2 2.5 ng/mL) [2] = test: as above; details: 72 h
NK-92 (IL-2 2.5 ng/mL) [3] = test: as above; details: 72 h
NKL (IL-2 2.5 ng/mL) [4] = test: as above; details: 72 h
DERL-7 (IL-2 2.5 ng/mL) [5] = test: as above; details: 72 h
IMC-1 (IL-2 20 ng/mL) [6] = test: as above; details: 72 h
[7] = test system: normal primary NK cells, pool 3 (3 donors) (IL-2 2.5 ng/mL); test: as above; details: 72 h
KAI3 (IL-2 2.5 ng/mL) [8] = test: as above; details: 72 h
[9] = test system: normal primary NK cells, pool 1 (3 donors), resting (IL-2 0 ng/mL); test: as above; details: 72 h
[10] = test system: normal primary NK cells, pool 2 (3 donors) (IL-2 2.5 ng/mL); test: as above; details: 72 h
[11] = test system: normal primary NK cells, pool 1 (3 donors) (IL-2 2.5 ng/mL); test: as above; details: 72 h
KHYG-1 (IL-2 2.5 ng/mL) [12] = test: as above; details: 72 h
YT (IL-2 2.5 ng/mL) [13] = test: as above; details: 72 h
[14] = test system: normal NK cells expanded with K562-aAPC; test: as above; details: 72 h; IL-2 2.5 ng/mL
Description: (§1)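 Drug sensitivity and resistance testing on K562-aAPC-expanded normal NK cells: 5 concentrations (10-fold steps over a 10,000-fold range), 72 h at 37 °C, viability by CellTiter-Glo normalised to DMSO and benzethonium chloride controls; DSS from the fitted curve.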

[15] = test system: normal NK cells expanded with K562-aAPC; test: percent inhibition of viability; higher = more inhibition; details: 72 h, IL-2 2.5 ng/mL
Description: as §1

NK-YS (IL-2 2.5 ng/mL) [16] = test: as above; details: 72 h
SNK-6 (IL-2 2.5 ng/mL) [17] = test: as above; details: 72 h
NK-92 (IL-2 2.5 ng/mL) [18] = test: as above; details: 72 h
NKL (IL-2 2.5 ng/mL) [19] = test: as above; details: 72 h
DERL-7 (IL-2 2.5 ng/mL) [20] = test: as above; details: 72 h
IMC-1 (IL-2 20 ng/mL) [21] = test: as above; details: 72 h
[22] = test system: normal primary NK cells, pool 3 (3 donors) (IL-2 2.5 ng/mL); test: as above; details: 72 h
KAI3 (IL-2 2.5 ng/mL) [23] = test: as above; details: 72 h
[24] = test system: normal primary NK cells, pool 1 (3 donors), resting (IL-2 0 ng/mL); test: as above; details: 72 h
[25] = test system: normal primary NK cells, pool 2 (3 donors) (IL-2 2.5 ng/mL); test: as above; details: 72 h
[26] = test system: normal primary NK cells, pool 1 (3 donors) (IL-2 2.5 ng/mL); test: as above; details: 72 h
KHYG-1 (IL-2 2.5 ng/mL) [27] = test: as above; details: 72 h
YT (IL-2 2.5 ng/mL) [28] = test: as above; details: 72 h

CN(c1ncccc1CNc1nc(Nc2ccc3c(c2)CC(=O)N3)ncc1C(F)(F)F)S(C)(=O)=O (max concentration tested 10000 nM)
Details	drug sensitivity score
DERL-7 (IL-2 2.5 ng/mL) [5]	8
IMC-1 (IL-2 20 ng/mL) [6]	5.8
KAI3 (IL-2 2.5 ng/mL) [8]	7.77
KHYG-1 (IL-2 2.5 ng/mL) [12]	10.8
NK-92 (IL-2 2.5 ng/mL) [3]	5.49
NK-YS (IL-2 2.5 ng/mL) [1]	9.57
NKL (IL-2 2.5 ng/mL) [4]	8.95
SNK-6 (IL-2 2.5 ng/mL) [2]	3.56
YT (IL-2 2.5 ng/mL) [13]	9.01
[7]	4.64
[9]	3.17
[10]	4.9
[11]	7.02
[14]	6.5

percent inhibition of viability [%]
Details	1 nM	10 nM	100 nM	1000 nM	10000 nM
DERL-7 (IL-2 2.5 ng/mL) [20]	-3.04	-1.94	-4.92	14.9	99.9
IMC-1 (IL-2 20 ng/mL) [21]	-1.02	-1.57	1.51	2.71	97.8
KAI3 (IL-2 2.5 ng/mL) [23]	-4.38	-3.17	-1.99	15.1	94.9
KHYG-1 (IL-2 2.5 ng/mL) [27]	1.46	-1.82	-1.38	42.5	95.7
NK-92 (IL-2 2.5 ng/mL) [18]	-15.3	-22	-13	1.77	94.6
NK-YS (IL-2 2.5 ng/mL) [16]	1.14	-3.29	-8.54	31.5	92.8
NKL (IL-2 2.5 ng/mL) [19]	-0.23	-12.4	-5.82	24.1	95
SNK-6 (IL-2 2.5 ng/mL) [17]	8.22	-2.6	-15.8	2.42	59.8
YT (IL-2 2.5 ng/mL) [28]	2.65	-2.39	-3.31	24.6	95.2
[15]	-0.87	-5.24	-0.38	6.43	99.8
[22]	-12.7	-6.19	-9.86	-12.6	97.7
[24]	-20.5	-23.2	-40	-70.9	88.9
[25]	-12.4	-9.66	-11.1	-4.87	94.8
[26]	-2.69	-13.7	-10.8	10	97.2

Cn1cc(C2=Nc3cc(NC(=O)C(N)C4CCCCC4)cc4c3C2=CNNC4=O)cn1 (stereo not drawn) (max concentration tested 10000 nM)
Details	drug sensitivity score
DERL-7 (IL-2 2.5 ng/mL) [5]	11.1
IMC-1 (IL-2 20 ng/mL) [6]	19.1
KAI3 (IL-2 2.5 ng/mL) [8]	19.7
KHYG-1 (IL-2 2.5 ng/mL) [12]	22.6
NK-92 (IL-2 2.5 ng/mL) [3]	14.7
NK-YS (IL-2 2.5 ng/mL) [1]	15.2
NKL (IL-2 2.5 ng/mL) [4]	11.7
SNK-6 (IL-2 2.5 ng/mL) [2]	18
YT (IL-2 2.5 ng/mL) [13]	15
[7]	6.18
[9]	0
[10]	6.1
[11]	2.92
[14]	11.4

percent inhibition of viability [%]
Details	1 nM	10 nM	100 nM	1000 nM	10000 nM
DERL-7 (IL-2 2.5 ng/mL) [20]	-5.54	-1.5	4.6	48.3	97.6
IMC-1 (IL-2 20 ng/mL) [21]	-2.84	-1.7	7.25	99.8	101
KAI3 (IL-2 2.5 ng/mL) [23]	-1.93	-2.44	21.2	93	103
KHYG-1 (IL-2 2.5 ng/mL) [27]	18.4	5.75	32.3	104	107
NK-92 (IL-2 2.5 ng/mL) [18]	3.17	-3.7	17.4	65.2	107
NK-YS (IL-2 2.5 ng/mL) [16]	-0.41	0.42	9.21	75.4	97.2
NKL (IL-2 2.5 ng/mL) [19]	-1.81	2.84	-0.69	61.7	82.7
SNK-6 (IL-2 2.5 ng/mL) [17]	5.64	12.4	25.4	80.5	97.2
YT (IL-2 2.5 ng/mL) [28]	1.41	1.74	10.1	72.6	104
[15]	-1.76	0.06	11.6	53.4	73.3
[22]	-13	-2.42	9.48	11.7	76.2
[24]	1.23	-6.26	-15.6	-23.2	9.49
[25]	-14.2	-7.44	-6.63	8.32	85.8
[26]	-1.65	-6.59	-10.1	-4.12	59.9
